{"source": "paper PMC11358582", "about": "“Discovery of a potential bladder cancer inhibitor CHNQD-01281 by regulating EGFR and promoting infiltration of cytotoxic T cells” (Marine Life Science & Technology, 2024)", "key": {"EGFR": {"tested_on": "EGFR", "experiment": "Western blot of EGFR expression in J82 cells", "format": "cell-based, human", "details": "J82, 0.16 µmol/L, versus control", "experimental": "(§1) T24 and J82 cell lines were lysed in protein lysis buffer, which included phosphatase inhibitors and a cocktail of protease inhibitors. A BCA kit (SparkJade, China) was used to determine the total protein concentration. After protein denaturation, SDS-PAGE electrophoresis was performed and the protein transferred from the gel to a PVDF membrane (Millipore, USA). Then primary antibodies against cleaved caspases-3, cleaved PARP, AKT, phosphorylated AKT, ERK1/2, phosphorylated ERK1/2, EGFR, mTOR, phosphorylated mTOR and Tubulin (CST, USA) were diluted at 1:1000 at 4 °C overnight. The membranes were then washed and incubated with secondary antibodies dissolved in 5% nonfat milk. A chemiluminescence imaging system was used to detect the signals (Tanon, China).\n(§2) EGFR is overexpressed in malignant urothelial cells, which is associated with the deterioration, invasiveness and metastasis of tumors. It is a potential therapeutic target for bladder carcinoma. Therefore, we examined the expression of EGFR and its downstream proteins after treating bladder cancer cells with CHNQD-01281 (Supplementary Fig. S11). […] Taken together, CHNQD-01281 inhibited the proliferation of bladder cancer cells and induced apoptosis through EGFR/PI3K/AKT and EGFR/ERK pathways to exert antitumor effects."}, "[1]": {"experiment": "Single-dose safety profile, HE staining of main organs", "format": "in vivo, C57BL/6 mice", "details": "single dose 100 mg/kg, i.p.", "experimental": "To further investigate the safety profile of CHNQD-01281 in vivo, the HE staining of the heart, liver, spleen, lung, kidney and duodenum of C57 mice were analyzed after the single dose of CHNQD-01281 (100 mg/kg, i.p.). […] The distribution of CHNQD-01281 in tumor and main organs of C57BL/6 mice was then analyzed.\nFig. S14. Safety profile and tissue distribution of CHNQD-01281 in vivo. A Representative H&E staining images (scale bar: 50 μm) of main organs from vehicle and CHNQD-01281 (100 mg/kg, ip.) treated C57BL/6 mice (n = 3). B Bodyweight evaluation of mouse after treatment with vehicle and CHNQD-01281. C Tissue distribution of CHNQD-01281 in C57BL/6 mice (n = 3)."}, "T24 xenograft": {"tested_on": "T24 xenograft", "experiment": "T24 nude mice xenograft model", "format": "in vivo, BALB/c-nu mice", "details": "for reduction of Ki67 expression level (IHC): tumor tissue", "experimental": "Specific pathogen free (SPF)-grade C57BL/6 mice and BALB/c-nu mice were purchased from Jinan Pengyue Experimental Animal Center (license No. SCXK 20190003). The protocol was approved by the Research Review Committee of the Ocean University of China. All mice were housed in 12-h light and 12-h dark conditions in which the humidity was 50% ± 10% and the temperature was 22 ± 2 °C. All mice had free access to food and water. The human bladder cancer cell line T24 was injected subcutaneously into BALB/c-nu mice to construct a xenograft tumor model. The cell suspension of mouse bladder cancer cell line MB49 was injected into C57BL/6 mice subcutaneously to construct a syngeneic tumor model.\nFixed tissues were embedded in paraffin and then sectioned. The specimens were incubated with antibodies against Ki67, CD3, CD4, CD8 (Servicebio, China) and EGFR (ABclonal, China) at 4 °C overnight. The next day, the slides were washed with 1 × PBST three times for 5 min each and stained with the secondary antibodies and Hoechst 33342 dye (Beyotime, China) for 60 min for IF. For IHC staining, the sections were developed with a rabbit/mouse HRP kits (DAB) (Beyotime, China) according to the manufacturer’s instructions.\nTherefore, xenograft and homologous tumor models were constructed to further evaluate the antitumor effect of CHNQD-01281 in vivo. The mouse bladder cancer xenograft model was established by the subcutaneous inoculation of the T24 cell line, then CHNQD-01281 was intraperitoneally administrated for two consecutive weeks (Fig. 5A)."}, "p-ERK/ERK": {"tested_on": "p-ERK/ERK", "experiment": "Western blot of EGFR downstream proteins", "format": "cell-based, human", "details": "0.16 µmol/L", "experimental": "as §1, §2"}, "p-AKT/AKT": {"tested_on": "p-AKT/AKT", "experiment": "Western blot of EGFR downstream proteins", "format": "cell-based, human", "details": "0.16 µmol/L", "experimental": "as §1, §2"}, "p-mTOR/mTOR": {"tested_on": "p-mTOR/mTOR", "experiment": "Western blot of EGFR downstream proteins", "format": "cell-based, human", "details": "0.16 µmol/L", "experimental": "as §1, §2"}, "T24 cell line": {"tested_on": "T24 cell line", "experiment": "Colony formation assay", "format": "cell-based", "details": "Homo sapiens, T-24, 288 h, 12 days, read-out: inhibition rate on colony formation", "experimental": "(§3) T24 and J82 cell lines were seeded in 6-well plates at 500 cells/well. The cells were cultured overnight in medium. Compound CHNQD-01281 was added according to the concentration gradient, and the cells were placed in a 37 °C cell incubator containing 5% CO2 for 12 days. The cells were then fixed with 4% paraformaldehyde for 15 min and stained with crystal violet for 30 min. After that, pictures were taken and colony numbers were counted. The clone formation rate relative to the solvent control group was calculated.\n(§4) Cell proliferation ability was also detected by colony formation assay (Kabakov et al. [2018]), and the results are shown in Fig. 3A−B. CHNQD-01281 was applied for 12 days to detect long-term proliferation inhibition of T24 and J82 cell lines."}, "J82 cell line": {"tested_on": "J82 cell line", "experiment": "Colony formation assay", "format": "cell-based", "details": "Homo sapiens, 288 h, 12 days, read-out: inhibition rate on colony formation", "experimental": "as §3, §4"}}}
{"compound": "C[C@H]1CCC/C=C/[C@@H]2C[C@H](O)C[C@H]2[C@H](OC(=O)/C=C/c2cccnc2)/C=C/C(=O)O1", "note": "[CHNQD-01281, Brefeldin A 4-O-3-(pyridin-3-yl) acrylate]", "values": [{"measurement": "maximum down-regulation of EGFR expression", "setting": "EGFR", "value": 87.61, "unit": "%"}, {"measurement": "HE staining of heart, liver, spleen, lung, kidney and duodenum", "setting": "[1]", "value": "no obvious abnormalities in cell and tissue morphology"}, {"measurement": "reduction of Ki67 expression level (IHC)", "setting": "T24 xenograft; 15 mg/kg, versus control", "value": 38.32, "unit": "%"}, {"measurement": "expression of EGFR in tumor (IHC)", "setting": "T24 xenograft; 30 mg/kg", "value": "significantly down-regulated expression of EGFR"}, {"measurement": "tumor growth inhibition rate (TGI %)", "setting": "T24 xenograft; 30 mg/kg, i.p., QD, two weeks, tumor volume", "value": 52.63, "unit": "%"}, {"measurement": "reduction of Ki67 expression level (IHC)", "setting": "T24 xenograft; 30 mg/kg, versus control", "value": 66.47, "unit": "%"}, {"measurement": "reduction of tumor weight", "setting": "T24 xenograft; 30 mg/kg, versus control", "value": 48.57, "unit": "%"}, {"measurement": "decrease of p-ERK/ERK expression level", "setting": "p-ERK/ERK", "value": 96.95, "unit": "%"}, {"measurement": "decrease of p-AKT/AKT expression level", "setting": "p-AKT/AKT", "value": 99.96, "unit": "%"}, {"measurement": "decrease of p-mTOR/mTOR expression level", "setting": "p-mTOR/mTOR", "value": 60.36, "unit": "%"}, {"measurement": "inhibition at 0.04 µM", "setting": "T24 cell line; T24, 0.04 µmol/L", "value": 17, "unit": "%"}, {"measurement": "inhibition at 0.08 µM", "setting": "T24 cell line; T24, 0.08 µmol/L", "value": 52.5, "unit": "%"}, {"measurement": "inhibition at 0.16 µM", "setting": "T24 cell line; T24, 0.16 µmol/L", "value": 95.5, "unit": "%"}, {"measurement": "inhibition at 0.04 µM", "setting": "J82 cell line; J82, 0.04 µmol/L", "value": 25.1, "unit": "%"}, {"measurement": "inhibition at 0.08 µM", "setting": "J82 cell line; J82, 0.08 µmol/L", "value": 58.3, "unit": "%"}, {"measurement": "inhibition at 0.16 µM", "setting": "J82 cell line; J82, 0.16 µmol/L", "value": 85.9, "unit": "%"}]}
